Data on 22 compounds can be found in patent publication US7981903B2, “2-[2-{phenylamino}-1H-pyrrolo[2,3-D]pyrimidin-4-yl)amino] benzamide derivatives as IGF-1R inhibitors for the treatment of cancer” (GlaxoSmithKline LLC, priority 2007, dated 2011).

One experiment deals with T1, human IR (hIR) (Homo sapiens, UniProt P06213).
T1 construct: containing amino acid residues 979-1382 of human IR; made in house; host or cells: Sf9 cells (baculovirus), same process as hIGF1R
Put plainly: TR-FRET kinase assay of purified hIR. The class given is biochemical. To be noted: activated hIR 0.5 nM, 10 μM ATP, values given as pIC50 category. (In TR-FRET formats the signal depends on donor and acceptor labels being close together.)

A further experiment has as its system Colo205. Put plainly: Inhibition of cell proliferation (CellTiter-Glo or InCell analyzer), Colo205. The class given is cell-based. To be noted: Homo sapiens, COLO 205, 72 h / 3 days, values given as IC50 category. The essentials:
In one
In general terms: Cellular ATP, detected with luciferase, serves as a proxy for viable cell number.

The target in another experiment is T2, human IGF1R (hIGF1R) (Homo sapiens, UniProt P08069).
T2 construct: containing amino acid residues 957-1367 of human IGF1R; made in house; host or cells: Sf9 cells (baculovirus)
T2 sequence (P08069 957-1367): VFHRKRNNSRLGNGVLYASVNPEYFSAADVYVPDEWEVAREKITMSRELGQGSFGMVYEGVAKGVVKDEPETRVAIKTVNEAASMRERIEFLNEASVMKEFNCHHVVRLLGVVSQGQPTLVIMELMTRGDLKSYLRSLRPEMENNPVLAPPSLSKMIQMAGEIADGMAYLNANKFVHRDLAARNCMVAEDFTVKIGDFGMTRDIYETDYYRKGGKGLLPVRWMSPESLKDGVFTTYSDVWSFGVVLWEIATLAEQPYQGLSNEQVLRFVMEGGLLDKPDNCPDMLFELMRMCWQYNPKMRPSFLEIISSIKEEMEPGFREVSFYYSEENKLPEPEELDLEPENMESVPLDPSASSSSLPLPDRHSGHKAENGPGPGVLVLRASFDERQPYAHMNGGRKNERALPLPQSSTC
Put plainly: TR-FRET kinase assay of purified hIGF1R. The class given is biochemical. Particulars: activated hIGF1R 0.5 nM, 10 μM ATP, values given as pIC50 category, read-out: IGF-1R pIC50 (converted).

T1 sequence (P06213 979-1382): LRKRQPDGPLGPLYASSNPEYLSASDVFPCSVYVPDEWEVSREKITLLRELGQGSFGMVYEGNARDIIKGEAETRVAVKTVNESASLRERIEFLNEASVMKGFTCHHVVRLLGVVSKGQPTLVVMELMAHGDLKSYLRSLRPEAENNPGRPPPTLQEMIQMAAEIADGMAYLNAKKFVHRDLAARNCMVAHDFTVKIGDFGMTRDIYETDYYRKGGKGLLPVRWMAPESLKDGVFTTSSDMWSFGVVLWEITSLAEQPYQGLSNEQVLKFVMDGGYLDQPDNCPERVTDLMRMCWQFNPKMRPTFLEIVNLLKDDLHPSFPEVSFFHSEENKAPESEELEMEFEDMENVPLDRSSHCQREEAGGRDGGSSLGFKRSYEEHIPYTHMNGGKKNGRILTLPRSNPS

With `COc1cc(N2CCN(C(C)C)CC2)ccc1Nc1nc(Nc2cccc3c2C(=O)NC3)c2cc[nH]c2n1` [Example 199, 7-[(2-{[4-[4-(1-methylethyl)-1-piperazinyl]-2-(methyloxy)phenyl]amino}-1H-pyrrolo[2,3-d]pyrimidin-4-yl)amino]-2,3-dihydro-1H-isoindol-1-one], the IC50 is 1.26 to 3.98 nM at human IR (hIR), less than 250 nM with Colo205 and 1.26 to 3.98 nM at human IGF1R (hIGF1R).
Regarding `COc1cc(N2CCC(N3CC[C@@H](F)C3)CC2)ccc1Nc1nc(Nc2cccc(F)c2C(N)=O)c2cc[nH]c2n1` [Example 44, 2-fluoro-6-[(2-{[4-{4-[(3R)-3-fluoro-1-pyrrolidinyl]-1-piperidinyl}-2-(methyloxy)phenyl]amino}-1H-pyrrolo[2,3-d]pyrimidin-4-yl)amino]benzamide], the results for the IC50 against human IR (hIR), in the experiment with Colo205 and on human IGF1R (hIGF1R) were 1.26 to 3.98 nM, 250 to 1000 nM and 1.26 to 3.98 nM, respectively.
With `COc1cc2c(cc1Nc1nc(Nc3cccc(F)c3C(N)=O)c3cc[nH]c3n1)N(C(=O)CN)CC2` [Example 141, 2-fluoro-6-[(2-{[1-glycyl-5-(methyloxy)-2,3-dihydro-1H-indol-6-yl]amino}-1H-pyrrolo[2,3-d]pyrimidin-4-yl)amino]benzamide], the IC50 is 1.26 to 3.98 nM at human IR (hIR), 250 to 1000 nM in the experiment with Colo205 and 1.26 to 3.98 nM on human IGF1R (hIGF1R).
Take `COc1cc2c(cc1Nc1nc(Nc3cccc(F)c3C(N)=O)c3cc[nH]c3n1)CN(CCF)CC2` [Example 233, 2-fluoro-6-[(2-{[2-(2-fluoroethyl)-6-(methyloxy)-1,2,3,4-tetrahydro-7-isoquinolinyl]amino}-1H-pyrrolo[2,3-d]pyrimidin-4-yl)amino]benzamide]: the IC50 was 1.26 to 3.98 nM on human IR (hIR), 250 to 1000 nM in the experiment on Colo205 and 1.26 to 3.98 nM on human IGF1R (hIGF1R).
On to `CNC(=O)c1c(F)cc(Cl)cc1Nc1nc(Nc2cc3c(cc2OC)CCCN3C(=O)CN2CCCC2)nc2[nH]ccc12` [Example 174, 4-chloro-2-fluoro-N-methyl-6-[(2-{[6-(methyloxy)-1-(1-pyrrolidinylacetyl)-1,2,3,4-tetrahydro-7-quinolinyl]amino}-1H-pyrrolo[2,3-d]pyrimidin-4-yl)amino]benzamide], for which the figures for the IC50 on human IR (hIR), with Colo205 and at human IGF1R (hIGF1R) were 1.26 to 3.98 nM, 250 to 1000 nM and 1.26 to 3.98 nM, respectively.
For `CCCNC(=O)c1c(F)cccc1Nc1nc(Nc2cc3c(cc2OC)CCN3C(=O)CN(C)C)nc2[nH]ccc12` [Example 156, 2-[(2-{[1-(N,N-dimethylglycyl)-5-(methyloxy)-2,3-dihydro-1H-indol-6-yl]amino}-1H-pyrrolo[2,3-d]pyrimidin-4-yl)amino]-6-fluoro-N-propylbenzamide], the values for the IC50 at human IR (hIR), in the experiment on Colo205 and at human IGF1R (hIGF1R) were 1.26 to 3.98 nM, more than 1000 nM and 1.26 to 3.98 nM, respectively.
Take `COc1cc2c(cc1Nc1nc(Nc3cc(F)cc(F)c3C(=O)NCc3ccc(F)cc3)c3cc[nH]c3n1)N(C(=O)CN(C)C)CC2` [Example 155, 2-[(2-{[1-(N,N-dimethylglycyl)-5-(methyloxy)-2,3-dihydro-1H-indol-6-yl]amino}-1H-pyrrolo[2,3-d]pyrimidin-4-yl)amino]-4,6-difluoro-N-[(4-fluorophenyl)methyl]benzamide]: the IC50 on human IR (hIR) is 1.26 to 3.98 nM; in the experiment with Colo205, more than 1000 nM; at human IGF1R (hIGF1R), 1.26 to 3.98 nM.
Consider `COc1cc(N2CCOC[C@@H]2C)ccc1Nc1nc(Nc2cccc(F)c2C(N)=O)c2cc[nH]c2n1` [Example 49, 2-fluoro-6-[(2-{[4-[(3S)-3-methyl-4-morpholinyl]-2-(methyloxy)phenyl]amino}-1H-pyrrolo[2,3-d]pyrimidin-4-yl)amino]benzamide], for which the IC50 on human IR (hIR) was 1.26 to 3.98 nM; with Colo205, less than 250 nM; on human IGF1R (hIGF1R), 1.26 to 3.98 nM.
Take `COc1cc(N2CCC(N3CCCCC3)CC2)ccc1Nc1nc(Nc2cc(F)c(F)cc2C(N)=O)c2cc[nH]c2n1` [Example 100, 2-[(2-{[4-(1,4′-bipiperidin-1′-yl)-2-(methyloxy)phenyl]amino}-1H-pyrrolo[2,3-d]pyrimidin-4-yl)amino]-4,5-difluorobenzamide]: the IC50 against human IR (hIR) was 0.251 to 1 nM; in the experiment with Colo205, less than 250 nM; on human IGF1R (hIGF1R), 0.251 to 1 nM.
Regarding `CNC(=O)c1c(F)cccc1Nc1nc(Nc2cc3c(cc2OC)CCCN3C(=O)CN2CCCCC2)nc2[nH]ccc12` [Example 217, 2-fluoro-N-methyl-6-[(2-{[6-(methyloxy)-1-(1-piperidinylacetyl)-1,2,3,4-tetrahydro-7-quinolinyl]amino}-1H-pyrrolo[2,3-d]pyrimidin-4-yl)amino]benzamide], the IC50 on human IR (hIR) is 1.26 to 3.98 nM; in the experiment with Colo205, 250 to 1000 nM; on human IGF1R (hIGF1R), 1.26 to 3.98 nM.
`COc1cc(N2CCC(N3CCOCC3)CC2)ccc1Nc1nc(Nc2cc(F)c(F)cc2C(N)=O)c2cc[nH]c2n1` [Example 101, 4,5-difluoro-2-{[2-({2-(methyloxy)-4-[4-(4-morpholinyl)-1-piperidinyl]phenyl}amino)-1H-pyrrolo[2,3-d]pyrimidin-4-yl]amino}benzamide]: the IC50 was 0.251 to 1 nM on human IR (hIR), 250 to 1000 nM with Colo205 and 0.251 to 1 nM on human IGF1R (hIGF1R).
Take `CCCN1CCC(c2ccc(Nc3nc(Nc4cc(F)ccc4C(N)=O)c4cc[nH]c4n3)c(OC)c2)CC1` [Example 73, 4-fluoro-2-[(2-{[2-(methyloxy)-4-(1-propyl-4-piperidinyl)phenyl]amino}-1H-pyrrolo[2,3-d]pyrimidin-4-yl)amino]benzamide]: the values for the IC50 against human IR (hIR), with Colo205 and on human IGF1R (hIGF1R) were 0.251 to 1 nM, less than 250 nM and 0.251 to 1 nM, respectively.
For `COc1cc(C2CCN(C(C)C)CC2)ccc1Nc1nc(Nc2cc(F)c(F)cc2C(N)=O)c2cc[nH]c2n1` [Example 97, 4,5-difluoro-2-[(2-{[4-[1-(1-methylethyl)-4-piperidinyl]-2-(methyloxy)phenyl]amino}-1H-pyrrolo[2,3-d]pyrimidin-4-yl)amino]benzamide], the figures for the IC50 against human IR (hIR), in the experiment with Colo205 and at human IGF1R (hIGF1R) were 0.251 to 1 nM, less than 250 nM and 0.251 to 1 nM, respectively.
As to `COc1cc(N2CCC(N3CC[C@H](F)C3)CC2)ccc1Nc1nc(Nc2cc(F)ccc2C(N)=O)c2cc[nH]c2n1` [Example 75, 4-fluoro-2-[(2-{[4-{4-[(3S)-3-fluoro-1-pyrrolidinyl]-1-piperidinyl}-2-(methyloxy)phenyl]amino}-1H-pyrrolo[2,3-d]pyrimidin-4-yl)amino]benzamide], the values for the IC50 at human IR (hIR), in the experiment with Colo205 and on human IGF1R (hIGF1R) were 0.251 to 1 nM, less than 250 nM and 0.251 to 1 nM, respectively.
With `COc1cc2c(cc1Nc1nc(Nc3cc(F)cc(F)c3C(N)=O)c3cc[nH]c3n1)CN(CCF)CC2` [Example 239, 2,4-difluoro-6-[(2-{[2-(2-fluoroethyl)-6-(methyloxy)-1,2,3,4-tetrahydro-7-isoquinolinyl]amino}-1H-pyrrolo[2,3-d]pyrimidin-4-yl)amino]benzamide], the IC50 on human IR (hIR) is 1.26 to 3.98 nM; in the experiment on Colo205, more than 1000 nM; at human IGF1R (hIGF1R), 1.26 to 3.98 nM.
For the compound `COc1cc(N2CCN(C(C)C)CC2)ccc1Nc1nc(Nc2ccc(F)c(F)c2C(N)=O)c2cc[nH]c2n1` [Example 94, 2,3-difluoro-6-[(2-{[4-[4-(1-methylethyl)-1-piperazinyl]-2-(methyloxy)phenyl]amino}-1H-pyrrolo[2,3-d]pyrimidin-4-yl)amino]benzamide], the values for the IC50 against human IR (hIR), with Colo205 and on human IGF1R (hIGF1R) were 1.26 to 3.98 nM, less than 250 nM and 1.26 to 3.98 nM, respectively.
As for `CCCN(C)CC(=O)N1CCc2cc(OC)c(Nc3nc(Nc4cccc(F)c4C(=O)NC)c4cc[nH]c4n3)cc21` [Example 167, 2-fluoro-N-methyl-6-[(2-{[5-(methyloxy)-1-(N-methyl-N-propylglycyl)-2,3-dihydro-1H-indol-6-yl]amino}-1H-pyrrolo[2,3-d]pyrimidin-4-yl)amino]benzamide], the figures for the IC50 at human IR (hIR), with Colo205 and on human IGF1R (hIGF1R) were 1.26 to 3.98 nM, 250 to 1000 nM and 1.26 to 3.98 nM, respectively.
`CCCN1CCC=C(c2ccc(Nc3nc(Nc4cc(F)ccc4C(N)=O)c4cc[nH]c4n3)c(OC)c2)C1` [Example 70, 4-fluoro-2-[(2-{[2-(methyloxy)-4-(1-propyl-1,2,5,6-tetrahydro-3-pyridinyl)phenyl]amino}-1H-pyrrolo[2,3-d]pyrimidin-4-yl)amino]benzamide]: the results for the IC50 on human IR (hIR), in the experiment with Colo205 and at human IGF1R (hIGF1R) were 0.251 to 1 nM, less than 250 nM and 0.251 to 1 nM, respectively.
Turning to `CNC(=O)c1c(F)cccc1Nc1nc(Nc2cc3c(cc2OC)CCN3C(=O)CN(C)C)nc2[nH]cc(F)c12` [Example 253, 2-[(2-{[1-(N,N-dimethylglycyl)-5-(methyloxy)-2,3-dihydro-1H-indol-6-yl]amino}-5-fluoro-1H-pyrrolo[2,3-d]pyrimidin-4-yl)amino]-6-fluoro-N-methylbenzamide], the values for the IC50 against human IR (hIR), with Colo205 and at human IGF1R (hIGF1R) were 1.26 to 3.98 nM, 250 to 1000 nM and 1.26 to 3.98 nM, respectively.
As for `COc1cc(N2CCOC[C@@H]2C)ccc1Nc1nc(Nc2ccc(F)cc2C(N)=O)c2cc[nH]c2n1` [Example 61, 5-fluoro-2-[(2-{[4-[(3S)-3-methyl-4-morpholinyl]-2-(methyloxy)phenyl]amino}-1H-pyrrolo[2,3-d]pyrimidin-4-yl)amino]benzamide], the IC50 against human IR (hIR) is 0.251 to 1 nM; in the experiment with Colo205, less than 250 nM; at human IGF1R (hIGF1R) it was 1.26 to 3.98 nM.
The matching figures for `COc1cc(N2CCN(C(C)C)CC2)ccc1Nc1nc(Nc2ccc(Br)cc2C(N)=O)c2cc[nH]c2n1` [Example 68, 5-bromo-2-[(2-{[4-[4-(1-methylethyl)-1-piperazinyl]-2-(methyloxy)phenyl]amino}-1H-pyrrolo[2,3-d]pyrimidin-4-yl)amino]benzamide]: 0.251 to 1 nM, less than 250 nM and 1.26 to 3.98 nM.
On to `CN(C)CC(=O)Nc1ccc(Cl)c(Nc2nc(Nc3ccccc3C(N)=O)c3cc[nH]c3n2)c1` [Example 18, 2-{[2-({2-chloro-5-[(N,N-dimethylglycyl)amino]phenyl}amino)-1H-pyrrolo[2,3-d]pyrimidin-4-yl]amino}benzamide], for which the results for the IC50 against human IR (hIR), with Colo205 and at human IGF1R (hIGF1R) were 0.251 to 1 nM, less than 250 nM and 0.251 to 1 nM, respectively.
